The target in data set [1] is T1, GABA-A receptor; alpha-5/beta-3/gamma-2 (Homo sapiens, UniProt P18507+P28472+P31644).
T1 sequence (P18507 whole entry): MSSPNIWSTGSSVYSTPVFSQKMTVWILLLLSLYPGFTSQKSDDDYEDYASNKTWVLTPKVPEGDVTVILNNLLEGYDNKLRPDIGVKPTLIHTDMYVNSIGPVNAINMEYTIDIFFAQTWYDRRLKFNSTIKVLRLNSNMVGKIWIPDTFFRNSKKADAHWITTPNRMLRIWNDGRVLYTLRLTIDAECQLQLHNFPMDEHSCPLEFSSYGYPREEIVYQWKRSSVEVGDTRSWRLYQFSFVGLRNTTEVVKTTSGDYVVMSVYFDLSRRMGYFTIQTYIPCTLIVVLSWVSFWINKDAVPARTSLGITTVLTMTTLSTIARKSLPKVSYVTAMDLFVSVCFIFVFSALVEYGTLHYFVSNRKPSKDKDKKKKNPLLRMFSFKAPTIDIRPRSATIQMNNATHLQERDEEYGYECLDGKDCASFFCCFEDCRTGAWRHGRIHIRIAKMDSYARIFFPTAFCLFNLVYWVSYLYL
T1 sequence (P28472 whole entry): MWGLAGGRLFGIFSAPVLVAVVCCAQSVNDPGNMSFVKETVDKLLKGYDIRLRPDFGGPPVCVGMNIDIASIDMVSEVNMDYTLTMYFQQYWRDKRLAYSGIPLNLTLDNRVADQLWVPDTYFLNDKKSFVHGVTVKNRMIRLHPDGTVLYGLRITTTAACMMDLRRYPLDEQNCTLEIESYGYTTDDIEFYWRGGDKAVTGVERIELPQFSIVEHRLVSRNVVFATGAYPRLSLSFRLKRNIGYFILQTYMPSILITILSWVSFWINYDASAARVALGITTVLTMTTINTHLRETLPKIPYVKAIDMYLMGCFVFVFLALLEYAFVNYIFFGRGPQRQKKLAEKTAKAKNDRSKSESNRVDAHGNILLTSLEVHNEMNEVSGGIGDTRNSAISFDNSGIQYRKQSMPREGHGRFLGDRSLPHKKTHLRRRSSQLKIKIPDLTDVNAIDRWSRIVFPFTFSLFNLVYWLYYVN
T1 sequence (P31644 whole entry): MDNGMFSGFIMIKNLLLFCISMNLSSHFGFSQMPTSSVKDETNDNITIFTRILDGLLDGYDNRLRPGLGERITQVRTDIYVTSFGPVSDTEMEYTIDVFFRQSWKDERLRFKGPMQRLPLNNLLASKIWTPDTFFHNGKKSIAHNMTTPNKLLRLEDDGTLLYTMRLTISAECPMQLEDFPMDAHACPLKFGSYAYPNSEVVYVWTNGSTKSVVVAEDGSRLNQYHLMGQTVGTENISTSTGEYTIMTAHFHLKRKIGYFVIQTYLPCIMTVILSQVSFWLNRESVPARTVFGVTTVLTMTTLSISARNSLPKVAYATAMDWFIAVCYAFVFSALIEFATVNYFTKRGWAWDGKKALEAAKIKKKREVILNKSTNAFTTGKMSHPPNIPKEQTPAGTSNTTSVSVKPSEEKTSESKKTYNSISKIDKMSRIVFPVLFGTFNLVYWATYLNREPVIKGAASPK
Briefly: Displacement of [3H]Ro 15-1788 from recombinant human GABA-Aalpha5 receptor plus beta-3-gamma-2 expressed in L(tk-) cells. It is filed as cell-based. For orientation: Loss of bound radioactivity is the signal in a displacement assay; it reports binding, not function.

Data set [2] concerns the target T2, GABA-A receptor; alpha-1/beta-3/gamma-2 (Homo sapiens, UniProt P14867+P18507+P28472).
T2 sequence (P14867 whole entry): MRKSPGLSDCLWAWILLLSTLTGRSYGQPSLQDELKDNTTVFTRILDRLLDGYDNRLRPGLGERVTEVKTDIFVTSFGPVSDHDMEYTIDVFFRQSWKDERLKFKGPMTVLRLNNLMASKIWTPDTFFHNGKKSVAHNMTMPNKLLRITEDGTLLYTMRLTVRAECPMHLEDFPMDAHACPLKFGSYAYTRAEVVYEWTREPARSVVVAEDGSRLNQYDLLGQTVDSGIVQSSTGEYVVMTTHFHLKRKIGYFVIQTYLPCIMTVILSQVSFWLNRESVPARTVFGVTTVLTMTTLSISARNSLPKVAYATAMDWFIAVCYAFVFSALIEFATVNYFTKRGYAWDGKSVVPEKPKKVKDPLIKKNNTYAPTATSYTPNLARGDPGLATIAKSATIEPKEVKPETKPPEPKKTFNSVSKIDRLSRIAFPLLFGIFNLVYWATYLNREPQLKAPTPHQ
T2 sequence (P18507 whole entry): T1 sequence (P18507 whole entry)
T2 sequence (P28472 whole entry): T1 sequence (P28472 whole entry)
As to the kind of experiment: Displacement of [3H]Ro 15-1788 from recombinant human GABA-Aalpha1 receptor plus beta3gamma2 expressed in mouse L(tk-) cells. It is filed as cell-based.

In data set [3] the test system is Rattus norvegicus. As to the kind of experiment: Plasma clearance in Sprague-Dawley rat at 1 mg/kg, iv or 1 mg/kg, po. It is filed as organism-based.
Data set [4] is described as follows: Half life in Beagle dog at 1 mg/kg, iv or 1 mg/kg, po. It is filed as ADME, organism-based, Canis lupus familiaris. Conditions: in vivo.

Consider 2 molecules from ChEMBL document CHEMBL1139660, “Imidazo[1,2-b][1,2,4]triazines as alpha2/alpha3 subtype selective GABA A agonists for the treatment of anxiety” (Bioorg Med Chem Lett, 2006).

The Ki is the dissociation constant of the complex between target and ligand, obtained from inhibition or displacement. Usually half-life stands for the time in which the quantity being followed falls by half. Read a low half-life as fast loss.

For the molecule `CC(C)(O)c1cnn2c(-c3ccc(F)c(-c4ncc(F)cc4F)c3)cnc2n1`, the Ki in data set [1] was found to be 2.71 nM; in data set [2], 0.67 nM. The CL (mL.min-1.kg-1) in data set [3] is 1.2.
As for `CC(C)(O)c1cnn2c(-c3ccc(F)c(-c4ncccc4C#N)c3)cnc2n1`, the results for the inhibition constant Ki in data set [1] and in data set [2] were 9.34 nM and 1.28 nM, respectively. The CL (mL.min-1.kg-1) in data set [3] stood at 2.4. The molecule also had a half-life in data set [4] of 9.7 h.
